Assay type in all cases: cell-based, mouse
One assay concerns MOR136-1. The experiment in a line: High-throughput multiplexed odorant screening (Smell-seq), barcode RNA-seq readout. The settings on record: OR MOR136-1; pair called as hit, FDR=1%. The source says:
(§1) We subsequently screened 182 odorants at three concentrations in triplicate against the OR cell library, the equivalent of ˜85,000 individual luciferase assays including controls (FIG. 10A, Table 2). Each 96-well plate in the assay contained positive control odorants and solvent DMSO wells for normalization (FIG. 16). We used the EdgeR software package to determine differentially responsive ORs based on a negative binomial model of barcode counts. We found 114 OR-odorant interactions (out of 7,200 possible), 81 of which are novel, and 24 interactions with 15 orphan receptors (FIG. 10C, FIG. 17 and Supplementary Table 4) (FDR=1%; Benjamini-Hochberg correction). Overall 28 of 39 receptors were activated by at least one odorant, and 68 of 182 odorants activated at least one OR (Table 4). We chose 37 interactions of at least 1.2 fold induction to test individually with a previously developed transient OR assay that has several important differences (FIG. 18). Of the 28 interactions called as hits at an FDR of 1%, 21 of them replicated in this orthogonal system (FIG. 17). […] Conversely, we also detect 14 interactions that this previous study tested, but called negative.

A further assay deals with MOR139-1. Described as above. As to conditions: OR MOR139-1; pair called as hit, FDR=1%.
Description: as §1

Another assay relates to MOR131-1. The assay is described as above. As to conditions: OR MOR131-1; pair called as hit, FDR=1%.
Description: as §1

A further assay concerns Olfr62. Described as above. The settings on record: OR Olfr62; pair called as hit, FDR=1%.
Description: as §1

Another assay concerns MOR112-1. Described as above. As to conditions: OR MOR112-1; pair called as hit, FDR=1%.
Description: as §1

The test system of the next assay is MOR13-1. The experiment in a line: High-throughput multiplexed odorant screening (Smell-seq), 96-well, barcode RNA-seq readout. The settings on record: OR MOR13-1; pair called as hit, FDR=1%. The source says: We find that chemicals with similar features activate similar sets of ORs, including those receptors we deorphanize in this study. For example, the previously orphan MOR13-1 is activated by four chemicals with polar groups attached, in three cases, to stiff non-rotatable scaffolds. Another example is, MOR19-1, which has clear affinity for the salicylate functional group. To better understand how chemical similarity relates to receptor activation without relying on incomplete and sometimes arbitrary chemical descriptors, we used a previously validated computational autoencoder to represent each chemical in a ˜292 dimensional latent space, allowing nearly lossless compression of chemical structure (Data not shown). We find chemicals that activate the same OR tend to cluster distinctly (FIG. 10D, FIG. 20). […] Many, but not all of the receptors. […] Understanding the space of chemicals that activates each OR establishes the groundwork for prediction of novel odorant-OR interactions.
(§2) 10. High-Throughput Odorant Screening
(§3) The OR library cell line was thawed from a liquid nitrogen frozen stock into a T-225 flask (Corning) three days before seeding into a 96-well plate for screening. The library was seeded at 6,666 cells per well in 100 ul of DMEM. 24 hours later a working concentration of 1 ug/ml of doxycycline in DMEM was added to the wells. 24 hours after induction, the media was removed from each plate and replaced with 25 ul of odorant diluted in OptiMEM. Each odor was added at three different concentrations (10 uM, 100 uM, 1 mM) in triplicate with the same amount of final DMSO (1%). Each plate contained two control odorants at a three concentration (10 uM, 100 uM, 1 mM) in triplicate and three wells containing 1% DMSO dissolved in media. The library was incubated with odorants for three hours in a cell culture incubator with the lids removed.
After odor incubation, media was pipetted out of the plates and cells were lysed by adding 25 uL of ice-cold Cells-to-cDNA II Lysis Buffer (Thermo Fisher) and pipetting up and down to homogenize and lyse cells. The lysate was then heated to 75° C. for 15 minutes and flash frozen with liquid nitrogen and kept at −80 C until further processing. Then 0.5 uL DNase I (New England Biolabs) was added to lysate, and incubated at 37° C. for 15 minutes. […]
For each batch, qPCR was performed on a few wells (OL005F and OL013) with SYBR FAST qPCR Mastermix to determine the number of cycles necessary for PCR based library preparation. […] Library concentrations were quantified using a Tape Station 2200 and a Qubit (Thermo Fisher). The libraries were sequenced with two index reads and a single end 75-bp read on a NextSeq 500 in high-output mode (Illumina). […]

A further assay has as its system MOR142-1. Nature of the assay: High-throughput multiplexed odorant screening (Smell-seq), barcode RNA-seq readout. As to conditions: OR MOR142-1; pair called as hit, FDR=1%.
Description: as §1

In a further assay the test system is MOR119-1. The assay is described as above. As to conditions: OR MOR119-1; pair called as hit, FDR=1%.
Description: as §1

A further assay relates to MOR23-1. The description is as above. The settings on record: OR MOR23-1; pair called as hit, FDR=1%.
Description: as §1

For a further assay, the system named is MOR4-1. Described as above. As to conditions: OR MOR4-1; pair called as hit, FDR=1%.
Description: as §1

For the next assay, the system named is MOR5-1. The experiment in a line: High-throughput multiplexed odorant screening (Smell-seq), 96-well, barcode RNA-seq readout. The settings on record: OR MOR5-1; pair called as hit, FDR=1%. On the procedure:
as §2, §3
(§4) After odor incubation, media was pipetted out of the plates and cells were lysed by adding 25 uL of ice-cold Cells-to-cDNA II Lysis Buffer (Thermo Fisher) and pipetting up and down to homogenize and lyse cells. The lysate was then heated to 75° C. for 15 minutes and flash frozen with liquid nitrogen and kept at −80 C until further processing. Then 0.5 uL DNase I (New England Biolabs) was added to lysate, and incubated at 37° C. for 15 minutes. To anneal the RT primer, 5 ul of lysate from each well was combined with 2.5 ul of 10 mM dNTPs (New England Biosciences), 1 ul of 2 uM gene specific RT primer (OL003), and 1.5 ul of H2O. The reaction was heated to 65° C. for 5 min and cooled back down to 0° C. After annealing, 1 ul of M-MuLV Reverse Transcriptase (Enzymatics), 1 ul of buffer, and 0.25 ul of RNase Inhibitor (Enzymatics) were added to each reaction. Reactions were incubated at 42° C. for 60 min and the RT enzyme was heat inactivated at 85° C. for 10 min.
For each batch, qPCR was performed on a few wells (OL005F and OL013) with SYBR FAST qPCR Mastermix to determine the number of cycles necessary for PCR based library preparation. The reaction and cycling conditions are optimized as follows: 95° C. for 3 minutes, 40 cycles of 95° C. for 3 seconds and 60° C. for 20 seconds. After qPCR, 5 ul of each RT reaction was combined with 0.4 ul of 10 uM primers containing sequencing adaptors (OL005F and OL013), 10 ul of NEB-Next Q5 Mastermix (New England Biosciences) and 4.2 ul H2O, the PCR was carried out according to the manufacturer's protocol. The forward primer contains the P7 adaptor sequence and an index identifying the well in the assay and the reverse primer contains the P5 adaptor sequence and an index identifying the plate in the assay. PCR products were pooled together by plate and purified with the DNA Clean and Concentrator Kit. Library concentrations were quantified using a Tape Station 2200 and a Qubit (Thermo Fisher). The libraries were sequenced with two index reads and a single end 75-bp read on a NextSeq 500 in high-output mode (Illumina).
11. Analysis of Next-Generation Sequencing Data
Samples were identified via indexing by their PCR indexes adapters unique for each well (5′ end) and unique for each plate (3′ end). The well barcodes followed the 7 bp indexing scheme in (Illumina Sequencing Library Preparation for Highly Multiplexed Target Capture and Sequencing Matthias Meyer, Martin Kircher, Cold Spring Harb Protoc; 2010; doi:10.1101/pdb.prot5448). The plate indexing scheme followed the Illumina indexing scheme. Sequencing data was demultiplexed and 15 bp barcode sequences were counted with only exact matches by custom python and bash scripts.
12. Statistical Methods for Calling Hits
Count data was then analyzed using the differential expression package EdgeR. To filter out ORs with low representation, we set a cutoff that an OR had to contain at least 0.5% of the reads from more than 399 of the 1954 test samples. This filtered out 3 of 42 ORs which were underrepresented in the cell library (MOR172-1, MOR176-1 and MOR181-1). […]

The next assay has as its system MOR120-1. Nature of the assay: High-throughput multiplexed odorant screening (Smell-seq), barcode RNA-seq readout. The settings on record: OR MOR120-1; pair called as hit, FDR=1%.
Description: as §1

The subject of the next assay is MOR165-1. The assay is described as above. The settings on record: OR MOR165-1; pair called as hit, FDR=1%.
Description: as §1

Assay [1] has as its system MOR19-1. The experiment in a line: High-throughput multiplexed odorant screening (Smell-seq), 96-well, barcode RNA-seq readout. As to conditions: for OR-odorant interaction called as hit in the multiplexed screen: MOR19-1, odorant at 10 uM, 100 uM, 1 mM in triplicate, 3 hours, FDR=1% (Benjamini-Hochberg); for Minimum Activating Concentration: OR MOR 19-1, pair called as hit, FDR=1%.
Description: as §1, §2, §3
as §4, with “After annealing, 1 ul of M-MuLV Reverse Transcriptase (Enzymatics), 1 ul of buffer, and 0.25 ul of RNase Inhibitor (Enzymatics) were added to each reaction. Reactions were incubated at 42° C. for 60 min and the RT enzyme was heat inactivated at 85° C. for 10 min.” left out

Assay [2] relates to MOR19-1. The experiment in a line: Odorant-receptor activation luciferase assay (transient), orthogonal follow-up. As to conditions: interactions called as hits at an FDR of 1% tested individually. The source says: We subsequently screened 182 odorants at three concentrations in triplicate against the OR cell library, the equivalent of ˜85,000 individual luciferase assays including controls (FIG. 10A, Table 2). Each 96-well plate in the assay contained positive control odorants and solvent DMSO wells for normalization (FIG. 16). We used the EdgeR software package to determine differentially responsive ORs based on a negative binomial model of barcode counts. We found 114 OR-odorant interactions (out of 7,200 possible), 81 of which are novel, and 24 interactions with 15 orphan receptors (FIG. 10C, FIG. 17 and Supplementary Table 4) (FDR=1%; Benjamini-Hochberg correction). Overall 28 of 39 receptors were activated by at least one odorant, and 68 of 182 odorants activated at least one OR (Table 4). We chose 37 interactions of at least 1.2 fold induction to test individually with a previously developed transient OR assay that has several important differences (FIG. 18). […]
The Dual-Glo Luciferase Assay System (Promega) was used to measure OR-odorant responses as previously described (Zhuang and Matsunami 2008). […] Luminescence was measured using the M1000 plate reader (Tecan). All luminescence values were normalized to Renilla luciferase activity to control for transfection efficiency in a given well. Data were analyzed with Microsoft Excel and R.

Where a name gives a salt, the structure may show the parent alone.

With `C=C(C)C1CCC(C)C(O)C1` (single isomer, unassigned; (+)) [(+)-Dihydrocarveol], in the assay on MOR136-1, the “Minimum Activating Concentration” value turned out to be 1000 µM.

Take `C=C(C)C1CCC(C)C(O)C1` (single isomer, unassigned; (-)) [(−)-Dihydrocarveol]: the “Minimum Activating Concentration” value in the assay on MOR139-1 and with MOR136-1 was 1000 µM each time.

Turning to `CCCCCCO` [1-hexanol], the “Minimum Activating Concentration” value with MOR131-1 is 1000 µM.

Consider `CCc1ccccc1O` [2-Ethylphenol], for which the “Minimum Activating Concentration” value with MOR136-1 stood at 100 µM.

For `CCC(=O)C(=O)CC` [3,4-Hexanedione], in the assay with MOR131-1, the “Minimum Activating Concentration” value came out at 1000 µM.

Take `CC12CCC(CC1=O)C2(C)C` (stereo not drawn) [(+)-Camphor]: the “Minimum Activating Concentration” value in the assay with MOR136-1 was 100 µM.

`O=Cc1ccccc1` [Benzaldehyde]: the “Minimum Activating Concentration” value with Olfr62, in the assay with MOR112-1 and in the assay with MOR13-1 was 1000 µM in each case.

With `Cc1occc1SSc1ccoc1C` [Bis(2-methyl-3-furyl)disulphide)], the “Minimum Activating Concentration” value in the assay with MOR142-1 came to 1000 µM.

Regarding `CSSCc1ccco1` [Furfuryl methyl disulfide], in the assay on MOR119-1, the “Minimum Activating Concentration” value worked out at 1000 µM.

For the compound `CCCCCC(=O)O` [Hexanoic Acid], the “Minimum Activating Concentration” value with MOR23-1, in the assay with MOR4-1 and in the assay with MOR5-1 was 1000 µM throughout.

For `CC(C)(O)CCCC1=CCC(C=O)CC1` (stereo not shown) [Lyral], in the assay on MOR120-1, the “Minimum Activating Concentration” value came out at 1000 µM.

`CCCCCCCCCS` [Nonanethiol]: the “Minimum Activating Concentration” value in the assay with MOR120-1 was determined as 1000 µM.

In the case of `CCCCCCCCOC=O` [Octyl formate], in the assay with MOR165-1, the “Minimum Activating Concentration” value is 1000 µM.

In the case of `CCCCC(=O)O` [Pentanoic Acid], the “Minimum Activating Concentration” value with MOR4-1 and with MOR13-1 was 1000 µM each time.

As for `O=C(OCc1ccccc1)c1ccccc1O` [benzyl salicylate], in the assay with MOR19-1 [1], the “OR-odorant interaction called as hit in the multiplexed screen” value was “hits” and the “Minimum Activating Concentration” value worked out at 10 µM. Besides, the “replication of the hit in the orthogonal transient OR luciferase assay” value in the assay on MOR19-1 [2] was “did not replicate”.

In the case of `COC(=O)c1ccccc1O` [methyl salicylate], in the assay on MOR19-1 [1], the “OR-odorant interaction called as hit in the multiplexed screen” value is reported as “hits” and the “Minimum Activating Concentration” value was 1000 µM. The “replication of the hit in the orthogonal transient OR luciferase assay” value in the assay on MOR19-1 [2] is “did not replicate”.

In the case of `CCCCCCCCCCOC(C)=O` [n-Decyl acetate], the “Minimum Activating Concentration” value in the assay with MOR119-1 was 100 µM.

In the case of decanedioic acid (sebacic acid), in the assay with MOR165-1, the “Minimum Activating Concentration” value stood at 1000 µM.

Values taken from US20200255844A1, “MULTIPLEXED RECEPTOR-LIGAND INTERACTION SCREENS” (THE REGENTS OF THE UNIVERSITY OF CALIFORNIA, priority 2017, published 2020).
